Data taken from US8389565B2, “Glycosidase inhibitors and methods of synthesizing same” (Simon Fraser University, priority 2000, dated 2013).
Counter-ions that a name gives are not always drawn. Like-named read-outs stand apart in the source and are kept apart here. One block for each compound: values may come before it.

What was measured:
[1] = target: T1, porcine pancreatic α-amylase (PPA) (Sus scrofa, UniProt P00690); assay: Inhibition of porcine pancreatic α-amylase activity towards DP17 amylose; type: biochemical
T1 construct: purchased Sigma
T1 sequence (P00690 16-511): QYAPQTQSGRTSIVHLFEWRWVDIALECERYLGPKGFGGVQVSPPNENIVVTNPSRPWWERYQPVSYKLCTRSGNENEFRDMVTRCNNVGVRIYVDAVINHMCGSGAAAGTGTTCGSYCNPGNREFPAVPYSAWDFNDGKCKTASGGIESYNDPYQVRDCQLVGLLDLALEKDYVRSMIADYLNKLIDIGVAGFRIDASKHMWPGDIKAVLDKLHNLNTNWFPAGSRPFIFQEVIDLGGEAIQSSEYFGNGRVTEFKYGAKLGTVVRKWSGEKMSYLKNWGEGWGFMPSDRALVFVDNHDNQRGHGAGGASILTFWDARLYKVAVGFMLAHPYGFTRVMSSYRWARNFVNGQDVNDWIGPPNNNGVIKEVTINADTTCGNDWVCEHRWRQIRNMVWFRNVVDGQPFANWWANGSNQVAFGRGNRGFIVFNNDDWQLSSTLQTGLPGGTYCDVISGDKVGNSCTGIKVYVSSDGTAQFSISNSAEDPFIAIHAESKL
From the text: (§1) Porcine pancreatic α-amylase (PPA) and bovine serum albumin (BSA) were purchased from Sigma. Amylose EX-1 (DP17; average degree of polymerization 17) was purchased from Hayashibara Chemical Laboratories (Okayama, Japan). Recombinant barley α-amylase isozyme 1 (AMY1) was produced and purified as described.^23 An aliquot of the porcine pancreatic x-amylase (PPA) crystalline suspension (in ammonium sulfate) was dialyzed extensively against the assay buffer without BSA. The enzyme concentration was determined by aid of amino acid analysis as determined using an LKB model Alpha Plus amino acid analyzer. […] Six different final inhibitor concentrations were used in the range 1 μM-5 mM. The inhibitor was pre-incubated with enzyme for 5 min at 37° C. before addition of substrate.

[2] = target: T2, Human Pancreatic α-Amylase (HPA) (Homo sapiens, UniProt P04746); assay: Human pancreatic α-amylase assay, hydrolysis of 2,4-Dinitrophenyl maltotrioside; type: biochemical; conditions: for Ki: n.a. = not active
T2 sequence (P04746 16-511): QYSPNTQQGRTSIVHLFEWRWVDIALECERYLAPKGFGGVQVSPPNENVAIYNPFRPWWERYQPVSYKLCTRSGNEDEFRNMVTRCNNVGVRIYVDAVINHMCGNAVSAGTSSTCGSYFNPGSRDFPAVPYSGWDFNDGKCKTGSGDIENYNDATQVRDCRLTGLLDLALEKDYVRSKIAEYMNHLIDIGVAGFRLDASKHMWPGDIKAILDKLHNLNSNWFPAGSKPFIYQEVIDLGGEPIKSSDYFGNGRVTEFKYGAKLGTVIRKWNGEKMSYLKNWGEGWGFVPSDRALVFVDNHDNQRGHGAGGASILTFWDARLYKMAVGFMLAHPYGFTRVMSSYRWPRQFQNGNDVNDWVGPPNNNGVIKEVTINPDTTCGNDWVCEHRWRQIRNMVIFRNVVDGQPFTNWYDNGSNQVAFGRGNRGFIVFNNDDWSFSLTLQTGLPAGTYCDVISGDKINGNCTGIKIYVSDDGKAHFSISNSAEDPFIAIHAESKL
Protocol: These assays were performed with purified enzyme. The ability of candidate inhibitors to inhibit the hydrolysis of 2,4-Dinitrophenyl maltotrioside was monitored by UV-visible spectroscopy of the released 2,4-dinitrophenol.

[3] = target: T3, Recombinant barley α-amylase isozyme 1 (AMY1) (Hordeum vulgare, UniProt P00693); assay: Inhibition of barley α-amylase isozyme 1 activity towards DP17 amylose; type: biochemical
T3 construct: made in house
From the text: as §1

[4] = target: T4, glucoamylase G2 form from Aspergillus niger (Aspergillus niger, UniProt P69328); assay: Inhibition of glucoamylase G2-catalyzed hydrolysis of maltose; type: biochemical
T4 construct: purchased Novo Nordisk, Bagsvaerd, Denmark
Protocol: The glucoamylase G2 form from Aspergillus niger was purified from a commercial enzyme (Novo Nordisk, Bagsvaerd, Denmark) as described.^19,20 The initial rates of glucoamylase G2-catalyzed hydrolysis of maltose was tested with 1 mM maltose as substrate in 0.1 M sodium acetate pH 4.5 at 45° C. using an enzyme concentration of 7.0×10^−8 M and five inhibitor concentrations in the range 1 μm-5 mM. The effect of the inhibition on rates of substrate hydrolysis were compared for the different compounds.

[5] = target: Maltase Glucoamylase (MGA) (Homo sapiens, UniProt O43451); assay: MGA activity in extracts of COS cells transfected with MGA5′ (maltase subunit) construct, maltose hydrolysis, glucose oxidase colorimetric assay; type: biochemical; set-up: COS cells transfected with MGA5′ (maltase subunit clone 10) construct were used; expressed in transfected cells; host or cells: COS cells; conditions: for Ki MGA (Human intestinal maltase glucoamylase): only the order of magnitude of activity (nM, μM, mM) or n.a. = not active
Protocol: In the assays, COS cells transfected with MGA5′ (maltase subunit clone 10) construct were used. Activity measurements were performed with cell extracts containing MGA. Maltose hydrolysis was monitored by measurement of the glucose released by a glucose oxidase colorimetric assay. Inhibition of this hydrolysis was measured as a reduction in OD reading.
In practice, an OD reading in the absence of the inhibitor was recorded, followed by a reading in the presence of the inhibitor. The percent reduction in OD reading upon administering a candidate inhibitor (see Table 11) was then correlated with a percent inhibition for a given concentration.

[6] = tested on: maltase activity in biopsies with live intestinal cells; assay: Maltase activity in biopsies with live intestinal cells; type: cell-based, human; conditions: 5 μM concentration
From the text: • 1) It appears that Acarbose acts principally by inhibiting human pancreatic α-amylase (HPA) and the breakdown of starch.

Sprague-Dawley rats = assay: In vivo maltose gavage in catheterized rats: plasma glucose and insulin; set-up: species or system rat; conditions: maltose gavage 1000 mg/kg with 25 mg/kg drug; for decrease of the 90 minute insulin AUC: versus Control
Protocol: Five week old Sprague-Dawley rats were housed singly under a 12:12-h light-dark photoperiod and given free access to water and rat chow (Purina rodent chow). After one week of acclimation, chronic indwelling catheters were implanted.
Animals were anesthetized with a combination of Ketamine-Xylazine-Butorphanol (0.1 ml/100 g im). Analgesic (Butorphenol, 1 mg/kg sc) was administered following recovery from anesthesia and the following morning. Antibiotic was administered by one dose sc and in the drinking water for 4 days post-operative (Baytril, 5 mg/kg sc, Bayer, Toronto, Canada; Baytril, 50 mg/ml: 0.36 ml solution in 250 ml drinking water). A sterile catheter (Intramedic PE-50 with ˜3 cm beveled Silastic tip) was placed in the left carotid artery and the distal end of the catheter was tunneled subcutaneously, exteriorized, and anchored at the nape of the neck. The catheters were protected from chewing by a stainless steel tether connected to a swivel system which allowed free movement of the animal and easy access to the catheter by the investigator.
The animals were allowed to recover for 1 week. Experiments were performed on conscious, unrestrained animals that had been fasted overnight by removal of chow from the cage hoppers at 2100. At 0800 the following morning animals were weighed and Atropine (0.05 mg/kg sc) was administered as a […]. At baseline, animals were administered a bolus of maltose by oral gavage (1000 mg/kg body weight) with or without drug (25 mg/kg body weight for all agents). Blood samples (0.1 mL) were taken via the implanted carotid line at -15 and -5 min for the baseline and at 7, 15, 30, 60, 90, 120, 210, 300 min.
Blood samples were kept on ice in microcentrifuge tubes and then were centrifuged. The plasma was stored at −20° C. until it was assayed. Plasma volume was triple replaced with heparinized saline (10u/mL), but red blood cells were not reinfused. Plasma glucose was assayed with the glucose oxidase method (Trinder RAICHEM Division of Hemagen Diagnostics, Inc. San Diego, Calif.). Plasma insulin concentrations were measured by rat insulin ELISA (Crystal Chem INC, Downers Grove, Ill.). Six experiments were performed for each treatment (control, Blintol, Acarbose, Salacinol).
All data are presented as means±SE. The significance of changes in plasma glucose and insulin were tested by two-way repeated-measures analysis of variance and were performed with the Statistical Analysis System for Windows (version 6.3, SAS Institute, Cary, N.C.). AUCs were compared using unpaired t-tests.

[7] = Stability on storage in aqueous solution; type: physicochemical
sucrase = conditions: cited from earlier work
[8] = read-out: Ki PPA (Porcine pancreatic α-amylase)
[9] = read-out: Ki AMY1 (Barley α-amylase)

T3 sequence (P00693 25-438): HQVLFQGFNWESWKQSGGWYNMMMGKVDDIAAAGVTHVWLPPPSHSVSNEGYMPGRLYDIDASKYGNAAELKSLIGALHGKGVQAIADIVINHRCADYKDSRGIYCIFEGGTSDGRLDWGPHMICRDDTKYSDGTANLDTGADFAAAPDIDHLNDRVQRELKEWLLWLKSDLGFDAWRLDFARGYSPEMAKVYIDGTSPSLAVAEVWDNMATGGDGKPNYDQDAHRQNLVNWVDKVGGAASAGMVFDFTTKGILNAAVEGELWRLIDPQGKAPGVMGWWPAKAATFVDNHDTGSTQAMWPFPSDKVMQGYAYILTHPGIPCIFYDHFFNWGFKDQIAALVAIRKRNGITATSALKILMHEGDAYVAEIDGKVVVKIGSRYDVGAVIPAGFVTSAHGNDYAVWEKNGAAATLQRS
Sequence of Maltase Glucoamylase (MGA) (O43451 356-737 limits assumed): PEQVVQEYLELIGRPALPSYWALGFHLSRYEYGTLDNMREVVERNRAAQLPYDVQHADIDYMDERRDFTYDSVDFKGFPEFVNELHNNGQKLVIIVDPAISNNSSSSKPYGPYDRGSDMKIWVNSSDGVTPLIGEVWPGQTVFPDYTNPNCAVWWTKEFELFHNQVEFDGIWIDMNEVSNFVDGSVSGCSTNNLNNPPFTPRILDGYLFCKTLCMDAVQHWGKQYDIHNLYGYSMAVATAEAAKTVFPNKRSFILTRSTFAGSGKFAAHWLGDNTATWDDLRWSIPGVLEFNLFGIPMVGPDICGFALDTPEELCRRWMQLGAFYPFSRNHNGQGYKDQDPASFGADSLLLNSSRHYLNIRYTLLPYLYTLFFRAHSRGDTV
T4 sequence (P69328 other isoform, or with tags, fused parts or gaps): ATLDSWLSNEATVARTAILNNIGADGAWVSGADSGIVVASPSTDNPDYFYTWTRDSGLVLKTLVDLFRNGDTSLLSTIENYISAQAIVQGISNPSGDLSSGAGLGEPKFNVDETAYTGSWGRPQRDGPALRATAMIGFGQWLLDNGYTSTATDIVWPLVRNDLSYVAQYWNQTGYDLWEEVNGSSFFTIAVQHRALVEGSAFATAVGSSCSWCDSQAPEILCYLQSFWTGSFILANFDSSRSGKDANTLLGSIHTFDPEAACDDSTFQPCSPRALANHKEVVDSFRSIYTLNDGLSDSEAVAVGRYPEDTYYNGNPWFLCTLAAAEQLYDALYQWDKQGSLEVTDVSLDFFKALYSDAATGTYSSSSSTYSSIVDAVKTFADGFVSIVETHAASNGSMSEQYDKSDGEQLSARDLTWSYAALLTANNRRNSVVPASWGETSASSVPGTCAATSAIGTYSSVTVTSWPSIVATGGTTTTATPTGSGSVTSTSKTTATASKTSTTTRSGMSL

Structure (SMILES): O=S(=O)([O-])O[C@@H](CO)[C@H](O)C[S@+]1C[C@@H](O)[C@H](O)[C@H]1CO
Ki [1, 8]: 10 µM
Ki [2]: 0.075 mM
Ki [3, 9]: 15 µM
Ki [4]: 1.71 mM

Structure (SMILES): O=S(=O)(O)O[C@H](CO)[C@@H](O)CN1C[C@H](O)[C@@H](O)[C@@H]1CO
Ki [1, 8]: > 5000 µM
Ki [2]: 0.4 mM
Ki [3, 9]: > 5000 µM
Ki ([4]; read-out: Ki GA (Glucoamylase)): > 8 mM

Structure (SMILES): O=S(=O)([O-])O[C@@H](CO)[C@H](O)C[Se@+]1C[C@@H](O)[C@H](O)[C@H]1CO
Ki [1]: > 5000 µM
Ki MGA (Human intestinal maltase glucoamylase) [5]: nM
Ki [2]: > 5 mM
Ki [3]: > 5000 µM

Ki [2]: > 5 mM
Structure (SMILES): O=S(=O)([O-])O[C@H](CO)[C@@H](O)C[S@@+]1C[C@@H](O)[C@H](O)[C@@H](O)C1

Ki MGA (Human intestinal maltase glucoamylase) [5]: mM
Ki [2]: > 5 mM
Structure (SMILES): O=S(=O)([O-])O[C@H](CO)[C@@H](O)C[S@+]1C[C@@H](O)[C@H](O)[C@@H](O)C1

Ki [2]: > 5 mM
Structure (SMILES): O=S(=O)([O-])O[C@H](CO)[C@@H](O)C[Se+]1C[C@@H](O)[C@H](O)[C@@H](O)C1 (some centres unmarked)

Structure (SMILES): O=S(=O)([O-])OC(CO)C(O)C[Se+]1CC(O)C(O)C1CO [Blintol, 1,4-Dideoxy-1,4-[[(2S,3S)-2,4-dihydroxy-3-(sulfooxy)butyl]episelenoniumylidene]-D-arabinitol Inner Salt]
percent inhibition of maltase activity [6]: 50%
time at which insulin values were different from basal (Sprague-Dawley rats): 15 min
time at which plasma glucose returned to basal (Sprague-Dawley rats): 60 min
15 minute glucose excursion from basal (Sprague-Dawley rats; mean ± SE, n=6): 29.3 ± 6.5 mg/dL
decrease of the 90 minute insulin AUC (Sprague-Dawley rats): 53%
IC50 [5]: 200 nM

stability of the 3′-sulfate ester on storage ([7]; D2O/NaOD at pH>10, 2 days at ambient temperature): completely hydrolyzed
Structure (SMILES): O=S(=O)(O)O[C@H](CO)[C@@H](O)CN1C[C@H](O)[C@@H](O)[C@H](O)[C@H]1CO [Compound 67b, 1,5-Dideoxy-1,5-[[N-(2R,RS)-2,4-dihydroxy-3-(sulfooxy)-butyl]iminoonium]-D-glucitol]

stability on storage in aqueous solution ([7]; aqueous solution, several days at ambient temperature): unchanged
Structure (SMILES): O=S(=O)([O-])O[C@H]1[C@H](O)C(O)O[C@@H]1C[S@+]1C[C@@H](O)[C@H](O)[C@H]1CO (stereo partly drawn) [Compound 101, 3-O-sulfoxy-5-deoxy-5-[1,4-dideoxy-1,4-episufoniumylidene-D-arabinitol]-α/β-D-arabinose inner salt]

Structure (SMILES): O=S(=O)([O-])O[C@@H]([C@H](O)[C@H](O)[C@@H](O)CO)[C@H](O)C[S+]1C[C@@H](O)[C@H](O)[C@H]1CO (some centres unmarked) [Kotalanol]
inhibitory activity against sucrase (in words) (sucrase): more potent inhibitory activity against sucrase than Salicinol and Acarbose

Structure (SMILES): O=S(=O)([O-])OC(CO)C(O)C[S+]1CC(O)C(O)C1CO [Salacinol, 1,4-Dideoxy-1,4-[[(2S,3S)-2,4-dihydroxy-3-(sulfooxy)butyl]-episulfoniumylidene]-D-arabinitol Inner Salt, reference compound]
Ki ([1]; amylose DP17, pH 6.9, 37° C., read-out: Ki value, PPA): 10 ± 2 µM
percent inhibition of maltase activity [6]: 13%
plasma glucose profile (in words) (Sprague-Dawley rats): significantly lower post-prandial plasma glucose
plasma insulin profile (in words) (Sprague-Dawley rats): significantly lower post-prandial plasma glucose and insulin concentrations
time at which insulin values were different from basal (Sprague-Dawley rats): 15 min
time at which plasma glucose returned to basal (Sprague-Dawley rats): 60 min
glucose Area Under the Curve, 0-90 minutes (in words) (Sprague-Dawley rats; excursion above basal): slightly lower 90 minute AUC's than Acarbose
decrease of the 90 minute insulin AUC (Sprague-Dawley rats): 65%
inhibition of MGA (in words) [5]: inhibits both HPA and MGA
inhibition at 5 µM ([5]; read-out: percent inhibition of the breakdown of maltose): 60%
inhibition of HPA (in words) [2]: inhibits both HPA and MGA
Ki ([3]; amylose DP17, pH 5.5, 37° C., read-out: Ki value, AMY1): 15 ± 1 µM
Ki [4]: 1.7 mM
